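Growth conditions: 96-well plates. Treatment: test compound, 48 hours, 5 concentrations. Analysis: linear interpolation between bracketing concentrations; unreached endpoints set to highest concentration. GI50 marks 50% less growth.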 The source made the active and inactive calls. Rule as the data show it: active = GI50 up to about 1.1 µM and inactive = higher.
How the values were obtained:
Assay in all cases: growth of human tumour cells (NCI), 48 h
786-0 = tested on: 786-0
A549 = tested on: A549
CCRF-CEM = tested on: CCRF-CEM
COLO 205 = tested on: COLO 205
EKVX = tested on: EKVX
HCT-15 = tested on: HCT-15
KM12 = tested on: KM12
MDA-MB-231 = tested on: MDA-MB-231
NCI-H460 = tested on: NCI-H460
NCI/ADR-RES = tested on: NCI/ADR-RES
OVCAR-4 = tested on: OVCAR-4
OVCAR-5 = tested on: OVCAR-5
OVCAR-8 = tested on: OVCAR-8
PC-3 = tested on: PC-3
RXF 393 = tested on: RXF 393
SF-295 = tested on: SF-295
SK-MEL-28 = tested on: SK-MEL-28
SNB-75 = tested on: SNB-75
SR = tested on: SR
LOX IMVI = tested on: LOX IMVI

Row | SMILES | GI50 (786-0) | GI50 (A549) | GI50 (CCRF-CEM) | GI50 (COLO 205) | GI50 (EKVX) | GI50 (HCT-15) [µM] | GI50 (KM12) | GI50 (MDA-MB-231) | GI50 (NCI-H460) | GI50 (NCI/ADR-RES) | GI50 (OVCAR-4) | GI50 (OVCAR-5) | GI50 (OVCAR-8) | GI50 (PC-3) | GI50 (RXF 393) | GI50 (SF-295) | GI50 (SK-MEL-28) | GI50 (SNB-75) | GI50 (SR) | GI50 (LOX IMVI)
1 | Nn1c(=O)[nH]c2ncn(Cc3ccccc3)c2c1=O | > 100 µM (inactive) | > 100 µM (inactive) | > 100 µM (inactive) | > 100 µM (inactive) | > 100 µM (inactive) | > 100 | > 100 µM (inactive) | > 100 µM (inactive) | > 100 µM (inactive) | > 100 µM (inactive) | > 100 µM (inactive) | > 100 µM (inactive) | > 100 µM (inactive) | > 100 µM (inactive) | > 100 µM (inactive) | > 100 µM (inactive) | > 100 µM (inactive) | > 100 µM (inactive) | > 100 µM (inactive) | 
2 | O=C(NC1(C(=O)NNc2nnc(-c3ccccc3)c(-c3ccccc3)n2)C(c2ccccc2)C(c2ccccc2)=NN1c1ccccc1)c1ccccc1 (stereo not drawn) | > 100 µM (inactive) | > 100 µM (inactive) |  | > 100 µM (inactive) | > 100 µM (inactive) | > 100 | > 100 µM (inactive) | > 100 µM (inactive) | > 100 µM (inactive) | > 100 µM (inactive) | > 100 µM (inactive) | > 100 µM (inactive) | > 100 µM (inactive) | > 100 µM (inactive) | 22.6 µM (inactive) | > 100 µM (inactive) |  | 55.8 µM (inactive) | > 100 µM (inactive) | 
3 | [O-][S+](Nc1ccccc1)c1cccc(Cl)c1 (stereo not drawn) | > 100 µM (inactive) | 39.7 µM (inactive) | 50.4 µM (inactive) | > 100 µM (inactive) | 27 µM (inactive) | 29.6 | 34.2 µM (inactive) | 66.1 µM (inactive) | 42.5 µM (inactive) | 34.6 µM (inactive) |  | > 100 µM (inactive) | 77.1 µM (inactive) | 65.9 µM (inactive) | 51.1 µM (inactive) | 65.3 µM (inactive) | 68.5 µM (inactive) | 76.6 µM (inactive) | 25.5 µM (inactive) | 60.5 µM (inactive)
4 | CCOC(=O)c1cc(=O)oc2c1N(C)c1ncccc1N2 | > 100 µM (inactive) | > 100 µM (inactive) |  | > 100 µM (inactive) |  | > 100 | > 100 µM (inactive) | 69.5 µM (inactive) | > 100 µM (inactive) | > 100 µM (inactive) | > 100 µM (inactive) | > 100 µM (inactive) | > 100 µM (inactive) | > 100 µM (inactive) | > 100 µM (inactive) | > 100 µM (inactive) | > 100 µM (inactive) | > 100 µM (inactive) | 63.4 µM (inactive) | > 100 µM (inactive)
5 | CC(=O)N(C)c1ccc(/N=C/N(C)C)cc1 | > 100 µM (inactive) | > 100 µM (inactive) | > 100 µM (inactive) | > 100 µM (inactive) | > 100 µM (inactive) | > 100 |  | > 100 µM (inactive) |  | > 100 µM (inactive) | > 100 µM (inactive) | > 100 µM (inactive) | > 100 µM (inactive) | > 100 µM (inactive) | > 100 µM (inactive) | > 100 µM (inactive) | > 100 µM (inactive) | > 100 µM (inactive) | > 100 µM (inactive) | > 100 µM (inactive)
6 | CCC1(O)CC(OC2CC(N(C)C)C(OC3CC(O)C(OC4CCC(=O)C(C)O4)C(C)O3)C(C)O2)c2c(O)c3c(c(O)c2C1C(=O)OC)C(=O)c1cccc(O)c1C3=O (stereo not drawn) | 0.0016 µM (active) | 0.00339 µM (active) | 0.00176 µM (active) | 0.00327 µM (active) | 0.012 µM (active) | 0.00719 | 0.00344 µM (active) | 0.0181 µM (active) | 0.000434 µM (active) | 0.0109 µM (active) | 0.01 µM (active) | 0.00575 µM (active) | 0.00174 µM (active) | 0.00502 µM (active) |  | 0.00219 µM (active) | 0.00995 µM (active) | 0.00881 µM (active) | 0.00897 µM (active) | 0.00184 µM (active)
7 | COc1cc(S(=O)(=O)Nc2nc(-c3ccc(N4C(=O)CSC4c4cccs4)cc3)cs2)ccc1Cl (stereo not drawn) | 81.1 µM (inactive) | > 100 µM (inactive) | 17.9 µM (inactive) | > 100 µM (inactive) |  | 22.8 | 75.5 µM (inactive) | > 100 µM (inactive) | > 100 µM (inactive) | > 100 µM (inactive) | 31.3 µM (inactive) | > 100 µM (inactive) | 33 µM (inactive) | 88.3 µM (inactive) | 24.1 µM (inactive) | > 100 µM (inactive) | > 100 µM (inactive) | > 100 µM (inactive) | 28.9 µM (inactive) | 21.8 µM (inactive)
8 | C1=C\SS/C=C\SS/C=C\SS/C=C\SS/1 | 46 µM (inactive) | > 100 µM (inactive) | 10.2 µM (inactive) | > 100 µM (inactive) | > 100 µM (inactive) | 21.5 | > 100 µM (inactive) | > 100 µM (inactive) | 22.9 µM (inactive) | > 100 µM (inactive) | > 100 µM (inactive) | > 100 µM (inactive) | 44.8 µM (inactive) | > 100 µM (inactive) | 80.9 µM (inactive) | 45.3 µM (inactive) | > 100 µM (inactive) |  | 54.1 µM (inactive) | 42.4 µM (inactive)
9 | NCCN(CCN(C(=O)Nc1ccccc1)c1ccccc1)C(=O)Nc1ccccc1 | 24.9 µM (inactive) | 30.6 µM (inactive) | 41.6 µM (inactive) | 23 µM (inactive) | 23.6 µM (inactive) | 24.5 |  | 39.1 µM (inactive) | 17.4 µM (inactive) | 30.8 µM (inactive) |  | 19 µM (inactive) | 23 µM (inactive) | 24.5 µM (inactive) | 14.7 µM (inactive) | 18.5 µM (inactive) | 19 µM (inactive) | 18.1 µM (inactive) | 27.6 µM (inactive) | 19.4 µM (inactive)
10 | COc1cc(OC)c2nc(C)c3c(c2c1)NCC3 | 4.42 µM (inactive) | 11.8 µM (inactive) | 5.26 µM (inactive) | 4.68 µM (inactive) |  | 12.1 |  | 7.76 µM (inactive) | 3.33 µM (inactive) | 18.4 µM (inactive) | 3.63 µM (inactive) | 6.28 µM (inactive) | 4.51 µM (inactive) | 6.03 µM (inactive) | 4.48 µM (inactive) | 11.2 µM (inactive) | 15.2 µM (inactive) | 12.4 µM (inactive) | 2.89 µM (inactive) | 3.25 µM (inactive)
11 | O=C(O)COc1cc(-c2ccccc2)nc2ccccc12 | 81.8 µM (inactive) | 66.4 µM (inactive) | 56.2 µM (inactive) | 51.1 µM (inactive) | > 100 µM (inactive) | 36.9 | 50.1 µM (inactive) | > 100 µM (inactive) | 48 µM (inactive) | 52.1 µM (inactive) | 77.1 µM (inactive) | > 100 µM (inactive) | > 100 µM (inactive) | > 100 µM (inactive) |  | 44.4 µM (inactive) | 73.3 µM (inactive) | 41.5 µM (inactive) | 63 µM (inactive) | 99.8 µM (inactive)
